Test results reported in the supplement of paper PMC10307832.

How the values were obtained:
Test in all cases: relative viability (nuclei count vs DMSO), 5 days (fraction); higher = more cells survive
[1] = system: NCI-H838
Procedure, shortened: (§1)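 Five library-drug doses in √10 steps were combined with a fixed anchor-drug dose, or a single drug was given alone, by pin tool to lung cancer cell lines in 1536-well plates the day after seeding. Nuclei were stained and counted after 5 days. Relative viability is the nuclei count in treated wells over that in vehicle wells, taken as the median of duplicate plates.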

[2] = system: SK-MES-1
Procedure, shortened: as §1

[3] = system: NCI-H1792
Procedure, shortened: as §1

[4] = system: UMC-11
Procedure, shortened: as §1

[5] = system: NCI-H358
Procedure, shortened: as §1

[6] = system: NCI-H2228
Procedure, shortened: as §1

[7] = system: NCI-H1915
Procedure, shortened: as §1

[8] = system: LCLC-97TM1
Procedure, shortened: as §1

[9] = system: NCI-H1355
Procedure, shortened: as §1

[10] = system: NCI-H322M
Procedure, shortened: as §1

[11] = system: PC-3 [JPC-3]
Procedure, shortened: as §1

[12] = system: NCI-H1395
Procedure, shortened: as §1

[13] = system: LK-2
Procedure, shortened: as §1

[14] = system: ABC-1
Procedure, shortened: as §1

[15] = system: NCI-H661
Procedure, shortened: as §1

[16] = system: H3255
Procedure, shortened: as §1

[17] = system: NCI-H1651
Procedure, shortened: as §1

[18] = system: NCI-H2087
Procedure, shortened: as §1

[19] = system: NCI-H1563
Procedure, shortened: as §1

[20] = system: A-427
Procedure, shortened: as §1

[21] = system: NCI-H2085
Procedure, shortened: as §1

[22] = system: CAL-12T
Procedure, shortened: as §1

[23] = system: LC-2-ad
Procedure, shortened: as §1

[24] = system: RERF-LC-KJ
Procedure, shortened: as §1

[25] = system: NCI-H1666
Procedure, shortened: as §1

CCCCCCCCCCCC1=C(O)C(=O)C=C(O)C1=O [Embelin] + Cc1nc(Nc2ncc(C(=O)Nc3c(C)cccc3Cl)s2)cc(N2CCN(CCO)CC2)n1 [Dasatinib] (partner 0.075 µM)
relative viability ([1]; first compound 0.08 µM): 0.312 | relative viability ([1]; first compound 0.8 µM): 0.316 | relative viability ([1]; first compound 2.53 µM): 0.248 | relative viability ([1]; first compound 8 µM): 0.224 | relative viability ([2]; first compound 0.08 µM): 0.372 | relative viability ([2]; first compound 0.8 µM): 0.466 | relative viability ([2]; first compound 2.53 µM): 0.321 | relative viability ([2]; first compound 8 µM): 0.361 | relative viability ([3]; first compound 0.08 µM): 0.771 | relative viability ([3]; first compound 0.8 µM): 0.803 | relative viability ([3]; first compound 2.53 µM): 0.792 | relative viability ([3]; first compound 8 µM): 0.867 | relative viability ([4]; first compound 0.08 µM): 0.45 | relative viability ([4]; first compound 0.8 µM): 0.48 | relative viability ([4]; first compound 2.53 µM): 0.519 | relative viability ([4]; first compound 8 µM): 0.437 | relative viability ([5]; first compound 0.08 µM): 0.205 | relative viability ([5]; first compound 0.8 µM): 0.136 | relative viability ([5]; first compound 2.53 µM): 0.171 | relative viability ([5]; first compound 8 µM): 0.162 | relative viability ([6]; first compound 0.08 µM): 0.503 | relative viability ([6]; first compound 0.8 µM): 0.618 | relative viability ([6]; first compound 2.53 µM): 0.592 | relative viability ([6]; first compound 8 µM): 0.396 | relative viability ([7]; first compound 0.08 µM): 0.309 | relative viability ([7]; first compound 0.8 µM): 0.361 | relative viability ([7]; first compound 2.53 µM): 0.321 | relative viability ([7]; first compound 8 µM): 0.335 | relative viability ([8]; first compound 0.08 µM): 1.05 | relative viability ([8]; first compound 0.8 µM): 0.668 | relative viability ([8]; first compound 2.53 µM): 0.916 | relative viability ([8]; first compound 8 µM): 0.912 | relative viability ([9]; first compound 0.08 µM): 0.753 | relative viability ([9]; first compound 0.8 µM): 0.808 | relative viability ([9]; first compound 2.53 µM): 0.845 | relative viability ([9]; first compound 8 µM): 0.586 | relative viability ([10]; first compound 0.08 µM): 0.26 | relative viability ([10]; first compound 0.8 µM): 0.263 | relative viability ([10]; first compound 2.53 µM): 0.261 | relative viability ([10]; first compound 8 µM): 0.232 | relative viability ([11]; first compound 0.08 µM): 1.02 | relative viability ([11]; first compound 0.8 µM): 1.05 | relative viability ([11]; first compound 2.53 µM): 1.12 | relative viability ([11]; first compound 8 µM): 0.966 | relative viability ([12]; first compound 0.08 µM): 0.393 | relative viability ([12]; first compound 0.8 µM): 0.484 | relative viability ([12]; first compound 2.53 µM): 0.404 | relative viability ([12]; first compound 8 µM): 0.352 | relative viability ([13]; first compound 0.08 µM): 0.26 | relative viability ([13]; first compound 0.8 µM): 0.427 | relative viability ([13]; first compound 2.53 µM): 0.304 | relative viability ([13]; first compound 8 µM): 0.237 | relative viability ([14]; first compound 0.08 µM): 0.575 | relative viability ([14]; first compound 0.8 µM): 0.657 | relative viability ([14]; first compound 2.53 µM): 0.528 | relative viability ([14]; first compound 8 µM): 0.53 | relative viability ([15]; first compound 0.08 µM): 0.852 | relative viability ([15]; first compound 0.8 µM): 1.08 | relative viability ([15]; first compound 2.53 µM): 0.99 | relative viability ([15]; first compound 8 µM): 0.703 | relative viability ([16]; first compound 0.08 µM): 0.355 | relative viability ([16]; first compound 0.8 µM): 0.378 | relative viability ([16]; first compound 2.53 µM): 0.298 | relative viability ([16]; first compound 8 µM): 0.456 | relative viability ([17]; first compound 0.08 µM): 0.388 | relative viability ([17]; first compound 0.8 µM): 0.508 | relative viability ([17]; first compound 2.53 µM): 0.438 | relative viability ([17]; first compound 8 µM): 0.335 | relative viability ([18]; first compound 0.08 µM): 0.877 | relative viability ([18]; first compound 0.8 µM): 1.19 | relative viability ([18]; first compound 2.53 µM): 1.06 | relative viability ([18]; first compound 8 µM): 0.913 | relative viability ([19]; first compound 0.08 µM): 0.475 | relative viability ([19]; first compound 0.8 µM): 0.447 | relative viability ([19]; first compound 2.53 µM): 0.405 | relative viability ([19]; first compound 8 µM): 0.387 | relative viability ([20]; first compound 0.08 µM): 0.689 | relative viability ([20]; first compound 0.8 µM): 0.805 | relative viability ([20]; first compound 2.53 µM): 0.689 | relative viability ([20]; first compound 8 µM): 0.727 | relative viability ([21]; first compound 0.08 µM): 0.253 | relative viability ([21]; first compound 0.8 µM): 0.246 | relative viability ([21]; first compound 2.53 µM): 0.227 | relative viability ([21]; first compound 8 µM): 0.209 | relative viability ([22]; first compound 0.08 µM): 0.414 | relative viability ([22]; first compound 0.8 µM): 0.522 | relative viability ([22]; first compound 2.53 µM): 0.481 | relative viability ([22]; first compound 8 µM): 0.539 | relative viability ([23]; first compound 0.08 µM): 0.596 | relative viability ([23]; first compound 0.8 µM): 0.837 | relative viability ([23]; first compound 2.53 µM): 0.823 | relative viability ([23]; first compound 8 µM): 0.412 | relative viability ([24]; first compound 0.08 µM): 0.82 | relative viability ([24]; first compound 0.8 µM): 0.983 | relative viability ([24]; first compound 2.53 µM): 0.81 | relative viability ([24]; first compound 8 µM): 0.704 | relative viability ([25]; first compound 0.08 µM): 0.793 | relative viability ([25]; first compound 0.8 µM): 0.88 | relative viability ([25]; first compound 2.53 µM): 0.839 | relative viability ([25]; first compound 8 µM): 0.852
